Results as given in PubChem BioAssay AID588587 (The Scripps Research Institute Molecular Screening Center, 2011).
Calls of active or inactive are those of the source.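 The calls were made as follows: active = inhibition above 60%; inactive = inhibition at or below 60%.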

Test system: Fam108b (Abhd17b) [Mus musculus]
Assay: Fam108b hydrolase inhibitors in membrane proteome – cell lysate, gel-based competitive ABPP, membrane form, set 2, SAR follow-up (AID 588587)
Details: Fam108b-overexpressing membrane proteome, FP-Rh, at 20 µM, active compounds read high

| inhibition | Compound |
| --- | --- |
| 0% (inactive) | CC(C)(C)c1nc2scc(-c3ccccc3)c2c(=O)o1 |
| 0% (inactive) | O=c1oc(-c2ccccc2F)nc2scc(-c3cccs3)c12 |
